# Data: the Kinase Knowledgebase extract (Sharma et al. 2016)
# Biological target: EGFR (UniProt P00533)
# Assay: Inhibition of EGFR Kinase Activity
# Chain of EGFR (P00533 whole entry, looked up): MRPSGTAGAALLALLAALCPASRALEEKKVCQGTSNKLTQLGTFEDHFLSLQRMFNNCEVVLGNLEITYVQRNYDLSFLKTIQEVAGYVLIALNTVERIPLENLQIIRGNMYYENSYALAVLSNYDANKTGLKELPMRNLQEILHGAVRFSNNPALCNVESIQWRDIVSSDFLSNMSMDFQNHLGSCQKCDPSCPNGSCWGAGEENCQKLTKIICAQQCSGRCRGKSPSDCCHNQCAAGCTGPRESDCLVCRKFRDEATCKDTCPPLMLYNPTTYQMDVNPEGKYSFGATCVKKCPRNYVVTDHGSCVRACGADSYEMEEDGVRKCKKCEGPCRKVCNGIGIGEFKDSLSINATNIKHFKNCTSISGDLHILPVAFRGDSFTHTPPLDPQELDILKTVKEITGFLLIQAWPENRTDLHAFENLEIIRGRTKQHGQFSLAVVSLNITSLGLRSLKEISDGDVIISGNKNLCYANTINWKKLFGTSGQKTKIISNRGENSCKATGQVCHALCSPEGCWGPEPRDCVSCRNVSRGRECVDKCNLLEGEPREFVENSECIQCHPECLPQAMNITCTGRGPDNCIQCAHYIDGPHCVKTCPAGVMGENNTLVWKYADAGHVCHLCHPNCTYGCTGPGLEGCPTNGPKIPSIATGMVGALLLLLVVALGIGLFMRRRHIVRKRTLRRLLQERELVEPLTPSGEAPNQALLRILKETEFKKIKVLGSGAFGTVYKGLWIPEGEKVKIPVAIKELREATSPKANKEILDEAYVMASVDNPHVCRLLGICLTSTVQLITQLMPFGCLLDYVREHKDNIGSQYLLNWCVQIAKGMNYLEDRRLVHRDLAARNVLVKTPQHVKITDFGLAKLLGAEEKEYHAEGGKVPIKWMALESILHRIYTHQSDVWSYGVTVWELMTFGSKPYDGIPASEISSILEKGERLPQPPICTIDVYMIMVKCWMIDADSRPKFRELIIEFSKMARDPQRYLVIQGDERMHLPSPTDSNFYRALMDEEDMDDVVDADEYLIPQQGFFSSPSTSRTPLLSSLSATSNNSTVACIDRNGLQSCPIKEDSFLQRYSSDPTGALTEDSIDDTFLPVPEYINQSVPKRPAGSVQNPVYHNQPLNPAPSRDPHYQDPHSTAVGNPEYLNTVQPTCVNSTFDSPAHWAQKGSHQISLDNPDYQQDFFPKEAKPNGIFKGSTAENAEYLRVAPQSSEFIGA
row,Compound,IC50 [µM]
1,C=CC(=O)Nc1cccc(Nc2ncnc(N(C)c3ccc(C(=O)OC)cc3)n2)c1,< 50
2,C=CC(=O)Nc1cccc(Nc2ncnc(Nc3ccc(OCCC)c(OCCC)c3)n2)c1,< 50
3,CC#CC(=O)Nc1cccc(Nc2ncnc(N(CC)c3ccc(OCCC)c(OCCC)c3)n2)c1,< 50
4,C=CCN(c1ncnc(Nc2ccc(NC(=O)C=C)cc2)n1)c1cc(Cl)ccc1C,< 50
5,C=CC(=O)N(CCCN1CCOCC1)c1cccc(Nc2ncnc(N(C)c3cccc(Cl)c3)n2)c1,< 50
6,C=CC(=O)Nc1ccc(Nc2ncnc(NN3CCCc4cc(Cl)ccc43)n2)cc1,< 50
7,C=CC(=O)Nc1ccc(Nc2ncnc(N(CC)c3cccc4ccccc34)n2)cc1,< 50
8,CC#CC(=O)Nc1cccc(Nc2ncnc(N(CC)c3cccc(S(=O)(=O)c4ccc([N+](=O)[O-])cc4)c3)n2)c1,< 50
9,C=CCN(c1cccc(CC(=O)OC)c1)c1ncnc(Nc2cccc(NC(=O)C=C)c2)n1,< 50
10,C=CCN(c1ccc(C(=O)OC)cc1)c1ncnc(Nc2ccc(NC(=O)C=C)cc2)n1,< 50
11,C=CC(=O)Nc1cccc(Nc2ncnc(Nc3cccc(Br)c3)n2)c1,< 50
12,C=CC(=O)Nc1ccc(Nc2ncnc(Nc3cc(Cl)ccc3C)n2)cc1,< 50
13,C=CC(=O)Nc1ccc(Nc2ncnc(Nc3ccc(OCCC)c(OCCC)c3)n2)cc1,< 50
14,CC#CC(=O)Nc1cccc(Nc2ncnc(N(C)c3cccc(S(=O)(=O)c4ccc([N+](=O)[O-])cc4)c3)n2)c1,< 50
15,C=CC(=O)Nc1cccc(Nc2ncnc(N(C)c3ccc4c(cnn4Cc4ccccc4)c3)n2)c1,< 50
16,CC#CC(=O)Nc1cccc(Nc2ncnc(N(C)c3ccc4c(ccn4Cc4ccccc4)c3)n2)c1,< 50
17,C=CCN(c1cccc(C(N)=O)c1)c1ncnc(Nc2cccc(NC(=O)C=C)c2)n1,< 50
18,C=CCN(c1cccc(Cl)c1)c1ncnc(Nc2cccc(NC(=O)C=C)c2)n1,< 50
19,C=CC(=O)Nc1cccc(Nc2ncnc(N(C)c3cccc(CC(=O)OC)c3)n2)c1,< 50

# Next, values leading:
row,IC50 [µM],Compound
1,< 50,C=CCN(c1ccc(OCC)c(OCC)c1)c1ncnc(Nc2ccc(NC(=O)C=C)cc2)n1
2,< 50,C=CC(=O)Nc1ccc(Nc2ncnc(N(C)c3ccc(OCCO)cc3)n2)cc1
3,< 50,C=CC(=O)Nc1cccc(Nc2ncnc(N(CC)c3ccc(OC)c(OCCOC)c3)n2)c1
4,< 50,C=CC(=O)Nc1ccc(Nc2ncnc(N(CC)c3cccc(Cl)c3)n2)cc1
5,< 50,C=CC(=O)Nc1cccc(Nc2ncnc(NC3CC3c3ccccc3)n2)c1 (centres undefined)
6,< 50,C=CC(=O)Nc1ccc(Nc2ncnc(N(C)c3cc(Cl)ccc3C)n2)cc1
7,< 50,C=C/C=C/C(=O)Nc1cccc(Nc2ncnc(NC3CC3c3ccc(Cl)cc3)n2)c1 (centres undefined)
8,< 50,CC#CC(=O)Nc1cccc(Nc2ncnc(NC3CC3c3ccc(Cl)cc3)n2)c1 (centres undefined)
9,< 50,C=CC(=O)Nc1ccc(Nc2ncnc(N(CC)c3ccc(OCCOC)c(OC)c3)n2)cc1
10,< 50,C=CCN(c1ccc(OC)c(OCCOC)c1)c1ncnc(Nc2cccc(NC(=O)C#CC)c2)n1
11,< 50,CC#CC(=O)Nc1cc(Nc2ncnc(Nc3ccc4c(ccn4Cc4ccccc4)c3)n2)ccc1OCCCN1CCOCC1
12,< 50,C=CCN(c1ncnc(Nc2cccc(NC(=O)C#CC)c2)n1)c1cc(Cl)cc2ccccc12
13,< 50,C=CC(=O)Nc1ccc(Nc2ncnc(N(CC)c3cc(Cl)ccc3C)n2)cc1
14,< 50,C=CC(=O)Nc1cccc(Nc2ncnc(N(CC)c3cc(OC)c(OC)c(OCCN4CCOCC4)c3)n2)c1
15,< 50,C=CC(=O)Nc1ccc(Nc2ncnc(Nc3cc(Cl)cc4ccccc34)n2)cc1
16,< 50,C=CC(=O)Nc1ccc(Nc2ncnc(Nc3ccc(OCc4ccccc4)c(Cl)c3)n2)cc1
17,< 50,C=CC(=O)Nc1ccc(Nc2ncnc(N(C)c3ccc4c(cnn4Cc4ccccc4)c3)n2)cc1OC
18,< 50,C=CC(=O)Nc1ccc(Nc2ncnc(N(CC)c3ccc(F)c(Cl)c3)n2)cc1
19,< 50,C=CC(=O)Nc1ccc(Nc2ncnc(Nc3cccc(OCCOC)c3)n2)cc1
20,< 50,C=CC(=O)Nc1ccc(Nc2ncnc(Nc3ccc(OC)c(OC)c3)n2)cc1
